Measurements taken from the NIST ThermoML archive (doi:10.1016/j.jct.2015.09.002).

Experiment: xn = mol fraction of the nth substance listed
Conditions: 93.2 kPa, Liquid, Vibrating tube method

CCCCN [1-butanamine] + CC#N
mass density [kg/m3]
Conditions	293.15 K	298.15 K	303.15 K	308.15 K
x2 = 0	737.12	732.33	727.51	722.66
x2 = 0.0102	737.48	732.7	727.88	723.03
x2 = 0.0229	737.89	733.1	728.28	723.42
x2 = 0.0481	738.62	733.83	729.01	724.14
x2 = 0.0616	738.99	734.2	729.37	724.51
x2 = 0.2006	742.87	738.04	733.19	728.3
x2 = 0.35	747.75	742.84	737.89	732.98
x2 = 0.4	749.52	744.61	739.64	734.69
x2 = 0.4503	751.36	746.43	741.47	736.49
x2 = 0.5007	753.36	748.41	743.43	738.41
x2 = 0.5489	755.38	750.41	745.4	740.35
x2 = 0.6002	757.66	752.67	747.61	742.54
x2 = 0.6492	759.99	754.96	749.88	744.78
x2 = 0.6998	762.57	757.51	752.4	747.24
x2 = 0.7488	765.21	760.11	754.97	749.77
x2 = 0.7997	768.18	763.02	757.82	752.57
x2 = 0.85	771.3	766.08	760.83	755.54
x2 = 0.9004	774.67	769.4	764.09	758.76
x2 = 0.9188	775.96	770.66	765.33	759.98
x2 = 0.9498	778.23	772.9	767.54	762.15
x2 = 0.96	779.01	773.67	768.29	762.89
x2 = 0.9694	779.73	774.38	769	763.59
x2 = 0.9804	780.56	775.21	769.81	764.38
x2 = 0.9892	781.24	775.87	770.46	765.03

CC(C)(C)N [2-methyl-2-propanamine] + CC#N
mass density [kg/m3]
Conditions	293.15 K	298.15 K	303.15 K	308.15 K
x2 = 0	692.06	686.65	681.18	675.66
x2 = 0.009	692.79	687.38	681.92	676.4
x2 = 0.0205	693.46	688.06	682.61	677.1
x2 = 0.0313	694.05	688.66	683.22	677.72
x2 = 0.0421	694.67	689.29	683.85	678.36
x2 = 0.0536	695.33	689.95	684.53	679.04
x2 = 0.0625	695.85	690.48	685.06	679.59
x2 = 0.0694	696.27	690.86	685.44	679.97
x2 = 0.0801	696.87	691.5	686.09	680.61
x2 = 0.0874	697.28	691.92	686.51	681.05
x2 = 0.1006	698.07	692.74	687.34	681.89
x2 = 0.1489	701.01	695.71	690.34	684.92
x2 = 0.2023	704.54	699.21	693.83	688.43
x2 = 0.2493	707.7	702.41	697.06	691.72
x2 = 0.3021	711.23	705.97	700.63	695.28
x2 = 0.3487	714.58	709.33	704	698.63
x2 = 0.3998	718.28	713.06	707.73	702.38
x2 = 0.4489	721.98	716.77	711.44	706.12
x2 = 0.501	726.15	720.91	715.64	710.33
x2 = 0.5485	730.26	725.04	719.77	714.47
x2 = 0.6009	735.01	729.79	724.53	719.22
x2 = 0.6494	739.58	734.35	729.08	723.75
x2 = 0.6932	743.94	738.74	733.46	728.14
x2 = 0.7494	749.81	744.57	739.28	733.95
x2 = 0.8001	755.58	750.29	744.99	739.64
x2 = 0.8497	761.5	756.2	750.87	745.51
x2 = 0.8984	767.7	762.38	757.02	751.64
x2 = 0.9093	769.13	763.81	758.46	753.06
x2 = 0.9202	770.57	765.25	759.88	754.48
x2 = 0.9292	771.83	766.5	761.11	755.72
x2 = 0.9401	773.34	768	762.61	757.2
x2 = 0.9501	774.73	769.38	763.99	758.56
x2 = 0.9599	776.15	770.78	765.38	759.96
x2 = 0.9699	777.57	772.2	766.79	761.36
x2 = 0.9795	778.96	773.59	768.17	762.72
x2 = 0.9892	780.39	775.01	769.59	764.14

CCCCNCCCC [dibutylamine] + CC#N
mass density [kg/m3]
Conditions	293.15 K	298.15 K	303.15 K	308.15 K
x2 = 0	759.7	755.61	751.5	747.38
x2 = 0.0695	760.49	756.33	752.17	748
x2 = 0.081	760.6	756.44	752.27	748.08
x2 = 0.1023	760.85	756.68	752.5	748.3
x2 = 0.1527	761.32	757.12	752.9	748.66
x2 = 0.2029	761.82	757.58	753.32	749.05
x2 = 0.2499	762.19	757.95	753.65	749.34
x2 = 0.2996	762.67	758.39	754.06	749.71
x2 = 0.3542	763.23	758.88	754.51	750.12
x2 = 0.3978	763.73	759.35	754.95	750.52
x2 = 0.47	764.62	760.17	755.7	751.19
x2 = 0.4987	764.98	760.52	756.02	751.49
x2 = 0.5498	765.74	761.23	756.67	752.09
x2 = 0.6001	766.63	762.05	757.43	752.78
x2 = 0.6499	767.62	762.97	758.29	753.59
x2 = 0.6991	768.71	763.99	759.24	754.46
x2 = 0.7496	770.07	765.28	760.44	755.59
x2 = 0.8	771.64	766.75	761.82	756.87
x2 = 0.8494	773.46	768.5	763.47	758.42
x2 = 0.8994	775.72	770.63	765.48	760.32
x2 = 0.9293	777.27	772.08	766.87	761.62
x2 = 0.9394	777.86	772.65	767.41	762.14
x2 = 0.9498	778.5	773.27	768	762.7
x2 = 0.9596	779.13	773.86	768.55	763.23
x2 = 0.9699	779.82	774.53	769.19	763.83
x2 = 0.9799	780.54	775.22	769.85	764.46
x2 = 0.9897	781.26	775.91	770.51	765.09
